Reference: ChEMBL document CHEMBL3797178, “Synthesis, antimycobacterial and antibacterial activity of 1-(6-amino-3,5-difluoropyridin-2-yl)fluoroquinolone derivatives containing an oxime functional moiety” (2016)
Values after ≈ are worked out from the molar mass of the structure shown.

Experiments:
Format in all cases: functional
[1] = tested on: Enterococcus faecalis; test: Antibacterial activity against Enterococcus faecalis 14-1 after 18 to 24 hrs by CLSI M100-S11 method
[2] = tested on: Klebsiella pneumoniae; test: Antibacterial activity against Klebsiella pneumoniae 14-1 after 18 to 24 hrs by CLSI M100-S11 method
[3] = tested on: Staphylococcus epidermidis; test: Antibacterial activity against methicillin-resistant Staphylococcus epidermidis 14-39 after 18 to 24 hrs by CLSI M100-S11 method
[4] = tested on: Pseudomonas aeruginosa; test: Antibacterial activity against Pseudomonas aeruginosa ATCC 27853 after 18 to 24 hrs by CLSI M100-S11 method
[5] = tested on: Klebsiella pneumoniae; test: Antibacterial activity against Klebsiella pneumoniae 14-4 after 18 to 24 hrs by CLSI M100-S11 method
[6] = tested on: Staphylococcus epidermidis; test: Antibacterial activity against methicillin-resistant Staphylococcus epidermidis 14-37 after 18 to 24 hrs by CLSI M100-S11 method
[7] = tested on: Escherichia coli; test: Antibacterial activity against extended-spectrum beta-lactamase-producing Escherichia coli 14-1 after 18 to 24 hrs by CLSI M100-S11 method
[8] = tested on: Pseudomonas aeruginosa; test: Antibacterial activity against Pseudomonas aeruginosa 14-9 after 18 to 24 hrs by CLSI M100-S11 method
[9] = tested on: Enterococcus faecalis; test: Antibacterial activity against Enterococcus faecalis 14-3 after 18 to 24 hrs by CLSI M100-S11 method
[10] = tested on: Enterococcus faecium; test: Antibacterial activity against Enterococcus faecium 14-2 after 18 to 24 hrs by CLSI M100-S11 method
[11] = tested on: Escherichia coli; test: Antibacterial activity against Escherichia coli 14-2 after 18 to 24 hrs by CLSI M100-S11 method
[12] = tested on: Klebsiella pneumoniae; test: Antibacterial activity against extended-spectrum beta-lactamase-producing Klebsiella pneumoniae 14-17 after 18 to 24 hrs by CLSI M100-S11 method
[13] = tested on: Staphylococcus aureus; test: Antibacterial activity against methicillin-sensitive Staphylococcus aureus 14-2 after 18 to 24 hrs by CLSI M100-S11 method
[14] = tested on: Streptococcus pneumoniae; test: Antibacterial activity against Streptococcus pneumoniae ATCC 19615 after 18 to 24 hrs by CLSI M100-S11 method
[15] = tested on: Pseudomonas aeruginosa; test: Antibacterial activity against Pseudomonas aeruginosa 14-15 after 18 to 24 hrs by CLSI M100-S11 method
[16] = tested on: Staphylococcus aureus; test: Antibacterial activity against methicillin-resistant Staphylococcus aureus 14-4 after 18 to 24 hrs by CLSI M100-S11 method
[17] = tested on: Staphylococcus epidermidis; test: Antibacterial activity against methicillin-sensitive Staphylococcus epidermidis 14-4 after 18 to 24 hrs by CLSI M100-S11 method
[18] = tested on: Pseudomonas aeruginosa; test: Antibacterial activity against Pseudomonas aeruginosa 14-16 after 18 to 24 hrs by CLSI M100-S11 method
[19] = tested on: Klebsiella pneumoniae; test: Antibacterial activity against Klebsiella pneumoniae 14-2 after 18 to 24 hrs by CLSI M100-S11 method
[20] = tested on: Pseudomonas aeruginosa; test: Antibacterial activity against Pseudomonas aeruginosa 14-14 after 18 to 24 hrs by CLSI M100-S11 method
[21] = tested on: Klebsiella pneumoniae; test: Antibacterial activity against extended-spectrum beta-lactamase-producing Klebsiella pneumoniae 14-18 after 18 to 24 hrs by CLSI M100-S11 method
[22] = tested on: Escherichia coli; test: Antibacterial activity against Escherichia coli ATCC 25922 after 18 to 24 hrs by CLSI M100-S11 method
[23] = tested on: Staphylococcus aureus; test: Antibacterial activity against Staphylococcus aureus CMCC 26003 after 18 to 24 hrs by CLSI M100-S11 method
[24] = tested on: Enterococcus faecalis; test: Antibacterial activity against Enterococcus faecalis 14-2 after 18 to 24 hrs by CLSI M100-S11 method
[25] = tested on: Klebsiella pneumoniae; test: Antibacterial activity against extended-spectrum beta-lactamase-producing Klebsiella pneumoniae 14-19 after 18 to 24 hrs by CLSI M100-S11 method
[26] = tested on: Mycobacterium tuberculosis; test: Antimycobacterial activity against Mycobacterium tuberculosis H37Rv ATCC 27294 after 3 days by microplate Alamar Blue assay; details: H37Rv ATCC 27294, 72 h
[27] = tested on: Staphylococcus aureus; test: Antibacterial activity against methicillin-resistant Staphylococcus aureus 14-5 after 18 to 24 hrs by CLSI M100-S11 method
[28] = tested on: Escherichia coli; test: Antibacterial activity against extended-spectrum beta-lactamase-producing Escherichia coli 14-2 after 18 to 24 hrs by CLSI M100-S11 method
[29] = tested on: Klebsiella pneumoniae; test: Antibacterial activity against Klebsiella pneumoniae 14-3 after 18 to 24 hrs by CLSI M100-S11 method
[30] = tested on: Staphylococcus aureus; test: Antibacterial activity against methicillin-sensitive Staphylococcus aureus 14-3 after 18 to 24 hrs by CLSI M100-S11 method
[31] = tested on: Staphylococcus epidermidis; test: Antibacterial activity against methicillin-resistant Staphylococcus epidermidis 14-22 after 18 to 24 hrs by CLSI M100-S11 method
[32] = tested on: Enterococcus faecium; test: Antibacterial activity against Enterococcus faecium 14-1 after 18 to 24 hrs by CLSI M100-S11 method
[33] = tested on: Escherichia coli; test: Antibacterial activity against Escherichia coli 14-1 after 18 to 24 hrs by CLSI M100-S11 method
[34] = tested on: Staphylococcus epidermidis; test: Antibacterial activity against methicillin-sensitive Staphylococcus epidermidis 14-2 after 18 to 24 hrs by CLSI M100-S11 method
[35] = tested on: Staphylococcus epidermidis; test: Antibacterial activity against methicillin-sensitive Staphylococcus epidermidis 14-6 after 18 to 24 hrs by CLSI M100-S11 method
[36] = tested on: Staphylococcus aureus; test: Antibacterial activity against methicillin-sensitive Staphylococcus aureus 14-4 after 18 to 24 hrs by CLSI M100-S11 method
[37] = tested on: Pseudomonas aeruginosa; test: Antibacterial activity against Pseudomonas aeruginosa 14-19 after 18 to 24 hrs by CLSI M100-S11 method

| SMILES | MIC [1] [µg/mL] | MIC [2] [µg/mL] | MIC [3] [µg/mL] | MIC [5] [µg/mL] | MIC [6] [µg/mL] | MIC [7] [µg/mL] | MIC [9] [µg/mL] | MIC [10] [µg/mL] | MIC [11] [µg/mL] | MIC [12] [µg/mL] | MIC [13] [µg/mL] | MIC [16] [µg/mL] | MIC [17] [µg/mL] | MIC [19] [µg/mL] | MIC [22] [µg/mL] | MIC [23] [µg/mL] | MIC [24] [µg/mL] | MIC [25] [µg/mL] | MIC [26] [µg/mL] | MIC [27] [µg/mL] | also measured |
| --- | --- | --- | --- | --- | --- | --- | --- | --- | --- | --- | --- | --- | --- | --- | --- | --- | --- | --- | --- | --- | --- |
| NC[C@H]1/C(=N/OCc2ccccc2)CN1c1nc2c(cc1F)c(=O)c(C(=O)O)cn2-c1nc(N)c(F)cc1F | > 128 | > 128 | > 130 | > 128 | > 128 | 64 (≈ 119 µM) | > 128 | 32 (≈ 59.3 µM) | > 128 | > 128 | 2 (≈ 3.71 µM) | > 128 | > 128 | > 128 | 4 (≈ 7.41 µM) | 2 (≈ 3.71 µM) | > 128 | > 128 | > 32 | > 128 | MIC [4]: 64 µg/mL (≈ 119 µM); MIC [8]: 128 µg/mL (≈ 237 µM); MIC [14]: 64 µg/mL (≈ 119 µM); MIC [15]: 128 µg/mL (≈ 237 µM); MIC [18]: 128 µg/mL (≈ 237 µM); MIC [20]: 128 µg/mL (≈ 237 µM); MIC [21]: 128 µg/mL (≈ 237 µM); MIC [28]: > 128 µg/mL; MIC [29]: > 128 µg/mL; MIC [30]: 4 µg/mL (≈ 7.41 µM); MIC [31]: > 128 µg/mL; MIC [32]: > 128 µg/mL; MIC [33]: > 128 µg/mL; MIC [34]: > 128 µg/mL; MIC [35]: > 128 µg/mL; MIC [36]: 4 µg/mL (≈ 7.41 µM) |
| NCC1CN(c2nc3c(cc2F)c(=O)c(C(=O)O)cn3-c2nc(N)c(F)cc2F)C/C1=N\OCc1ccccc1 (configuration not stated) | 8 (≈ 14.5 µM) | 128 (≈ 231 µM) | 32 (≈ 57.8 µM) | 128 (≈ 231 µM) | 32 (≈ 57.8 µM) | 8 (≈ 14.5 µM) | 16 (≈ 28.9 µM) | 16 (≈ 28.9 µM) | 128 (≈ 231 µM) | 64 (≈ 116 µM) | 0.015 (≈ 0.0271 µM) | 64 (≈ 116 µM) | 32 (≈ 57.8 µM) | 128 (≈ 231 µM) | 0.5 (≈ 0.903 µM) | < 0.008 | 16 (≈ 28.9 µM) | 128 (≈ 231 µM) | 3.81 (≈ 6.88 µM) | 128 (≈ 231 µM) | MIC [37]: 32 µg/mL (≈ 57.8 µM); MIC [4]: 8 µg/mL (≈ 14.5 µM); MIC [8]: 32 µg/mL (≈ 57.8 µM); MIC [14]: 16 µg/mL (≈ 28.9 µM); MIC [15]: 32 µg/mL (≈ 57.8 µM); MIC [18]: 32 µg/mL (≈ 57.8 µM); MIC [20]: 32 µg/mL (≈ 57.8 µM); MIC [21]: 32 µg/mL (≈ 57.8 µM); MIC [28]: 128 µg/mL (≈ 231 µM); MIC [29]: 128 µg/mL (≈ 231 µM); MIC [30]: 0.25 µg/mL (≈ 0.452 µM); MIC [31]: 16 µg/mL (≈ 28.9 µM); MIC [32]: 128 µg/mL (≈ 231 µM); MIC [33]: 128 µg/mL (≈ 231 µM); MIC [34]: 64 µg/mL (≈ 116 µM); MIC [35]: 32 µg/mL (≈ 57.8 µM); MIC [36]: 0.25 µg/mL (≈ 0.452 µM) |
| C[C@H]1COc2c(N3CCN(C)CC3)c(F)cc3c(=O)c(C(=O)O)cn1c23.C[C@H]1COc2c(N3CCN(C)CC3)c(F)cc3c(=O)c(C(=O)O)cn1c23.O [LEVOFLOXACIN] | 16 | 16 | 64 | 8 | 64 | 2 | 64 | 1 | 4 | 4 | 0.25 | 64 | 1 | 8 | 0.125 | 0.125 | 32 | 64 | 0.25 | 8 | MIC [28]: 8 µg/mL; MIC [29]: 16 µg/mL; MIC [30]: 0.125 µg/mL; MIC [31]: 32 µg/mL; MIC [32]: 128 µg/mL; MIC [33]: 4 µg/mL; MIC [34]: 128 µg/mL; MIC [35]: 2 µg/mL; MIC [36]: 0.5 µg/mL |
